Common to all, as to assay type: cell-based
In one assay the test system is DU4475. The experiment in a line: Proliferation inhibition test, Wnt mutant cell line DU4475. To be noted: Homo sapiens, DU-4475, 96 h, DU4475, 96 h culture with compound; read-out: Antiproliferation IC50 DU4475. From the text: (§1) The cell lines used in the experiment are Colo205, H929, HepG2, and DU4475, which have sustained activation of the Wnt pathway and whose proliferation is Wnt pathway-dependent. On the other hand, RKO cell line, in which normally the Wnt pathway is not activated and whose proliferation is not Wnt pathway-dependent, was used as a control cell line. This was done to determine whether the inhibitory effect of the compound of the present disclosure on Wnt-dependent proliferation is due to other nonspecific toxicity.
(§2) Colo205, H929, DU4475, HepG2 and RKO cell lines cultured in their respective culture media were treated in the logarithmic growth phase, and the cells were collected and prepared into a uniform cell suspension of known concentration, and then added to a 96-well cell culture plate so that each well contained 1000-4000 cells. Place in a 5% CO2 cell culture incubator and culture at 37° C. for 20-24 h. On the second day, add the completely dissolved, 3-fold gradient dilution compound to each cell culture well to make the final maximum concentration in the cell culture well 10 uM, and continue to culture for 96 h. This test uses Promega's cell activity detection test for detection. The more the cells proliferate, the stronger the final signal intensity. The detection instrument is SpectraMax, full wavelength mode. The wells with only DMSO added were used as positive control wells, and the wells without cells inoculated were used as negative control wells.

In assay [1] the test system is Colo205-LUC-TCF/LEF reporter gene. Put plainly: Colo205-LUC-TCF/LEF M1 reporter cell line luciferase inhibition. The settings on record: 4 h, 4 hours incubation, firefly luciferase signal. On the procedure: Colo205 cell line (Cell Bank of Chinese Academy of Sciences, Cat #TCHul02) was purchased from the Cell Bank of Chinese Academy of Sciences. After expansion and subculture, during the exponential growth phase, luciferase reporter plasmid (Promega) driven by TCF/LEF transcription factor was transfected by lipo3000 liposome transfection. The plasmid carries a resistance gene for resistance screening. Transfection was carried out in 10 cm culture dishes using conventional complete medium without resistance. After 2 days, the medium with resistance was replaced, and the culture was continued. After that, the medium with resistance was replaced every 2 days, and the suspended cells were discarded. The original medium was centrifuged to remove cells and debris and retained as an adaptive medium. When the cells covered the culture dish, the cells were digested, counted, and passaged in a 96-well plate, so that the average number of cells contained in each well was 1.5/well, and the adaptive medium was used for passage. The rest of the cells were frozen. After passage, culture for 4 hours to allow the cells to adhere to the wall, and then observe the number of cells in each well under a microscope. Wells with only 1 cell per well were labeled as monoclonal wells. Afterwards, normal culture was performed, and the culture medium was replaced every 2 days, and observed. There are wells where the monoclonal cells continue to grow in the early stage, and they are labeled twice, and can be replaced with normal medium with resistance. When a monoclonal well was overgrown with a 96-well plate, it is digested and passaged to a 24-well culture plate. After the 24-well plate is overgrown, it is passaged to a 96-well plate and a 6-well plate. The cells in a 96-well plate are at least 6 wells, of which 3 wells were added with known Wnt inhibitors, and the other 3 wells were not treated. After 24 hours, the cells in the 96-well plate were added with a fluorescence detection reagent to detect the fluorescence intensity. Cell lines with fluorescent expression when not treated and decreased fluorescent light after inhibition were selected and further cultured. The Colo205-LUC-TCF/LEF-M1 cell line is one of the cell lines screened above. Its growth curve, cell shape, and cell growth state are similar to those of the original Colo205 cells, and the ratio of the fluorescent signals of the inhibitor-treated and untreated cells is the largest among all cell lines, and the ratio can reach 4-5 times when inhibited at 4 hours, which was completely suitable for the screening of Wnt inhibitors in the later stage.
The Colo205-LUC-TCF/LEF M1 cell line is a reporter tool cell stably transfected with the pGL4.49-LUC2-TCF/LEF vector. The β-catenin Wnt pathway is continuously activated. After adding the inhibitor, the Wnt pathway is inhibited. The expression of firefly luciferase regulated by the TCF/LEF cis-element decreased, and after adding the detection substrate, the detected light signal decreased accordingly, so as to detect the inhibitory effect of the compound.
To a 96-well cell culture plate, add 100 uL of the compound with a maximum concentration of 20 uM to each well, and make a 3-fold serial dilution of the compound concentration. Then 10,000 colo205 cells stably transfected with the reporter gene and 100 uL medium were inoculated into each well, and corresponding positive and negative control wells were made at the same time. Put the cells in a 5% CO2 incubator and incubate at 37° C. for 4 hours. After 4 hours, remove the culture medium, add 100 μL of reagent (Promega) containing the corresponding firefly luciferase substrate to each well, and measure the activity of luciferase reporter gene. Luminescence intensity was read with SpectraMax in full wavelength mode. […]

For another assay, the system named is HepG2. Put plainly: Proliferation inhibition test, Wnt mutant cell line HepG2. To be noted: Homo sapiens, HepG2, 96 h, HepG2, 96 h culture with compound; read-out: Antiproliferation IC50 HepG2.
From the text: as §1, §2

The test system of a further assay is RKO. The experiment in a line: Proliferation inhibition test, non-Wnt mutant control cell line RKO. To be noted: Homo sapiens; RKO (Wnt pathway not activated, control), 96 h culture, maximum concentration 10 uM; read-out: Antiproliferation IC50 RKO.
From the text: as §1, §2

Another assay deals with H929. The experiment in a line: Proliferation inhibition test, Wnt mutant cell line H929. To be noted: Homo sapiens, NCI-H929, 96 h, H929, 96 h culture with compound; read-out: Antiproliferation IC50 H929.
From the text: as §1, §2

A further assay has as its system Colo205. The experiment in a line: Proliferation inhibition test, Wnt mutant cell line Colo205. The settings on record: Homo sapiens, COLO 205, 96 h, Colo205, 96 h culture with compound; read-out: Antiproliferation IC50 Colo205.
From the text: as §1, §2

Where only a bound is given, the exact number is not on record here.

As to `[2H]C([2H])([2H])N1c2nc(NCc3ccc(Oc4cnc(C(F)(F)F)nc4C4CC4)nc3)nc3c2N(CCC3)C(=O)[C@]1(C)CO` [Compound 10, (S)-2-(((6-((4-cyclopropyl-2-(trifluoromethyl)pyrimidin-5-yl)oxy)pyridin-3-yl)methyl)amino)-5-(hydroxymethyl)-5-methyl-4-(methyl-d3)-4,5,9,10-tetrahydro-6H,8H-pyrido[3,2,1-de]pteridin-6-one], the IC50 is less than 0.5 nM with DU4475; 3.89 nM in assay [1]; 3.54 nM in the assay on HepG2; more than 10000 nM in the assay on RKO; 18 nM in the assay with H929; 2.34 nM with Colo205.

Turning to `[2H]C([2H])([2H])N1c2nc(NCc3ccc(Oc4ccc(C(F)(F)F)nc4F)nc3)nc3c2N(CCC3)C(=O)[C@]1(C)CO` [Compound 18, (S)-2-(((6-((2-fluoro-6-(trifluoromethyl)pyridin-3-yl)oxy)pyridin-3-yl)methyl)amino)-5-(hydroxymethyl)-5-methyl-4-(methyl-d3)-4,5,9,10-tetrahydro-6H,8H-pyrido[3,2,1-de]pteridin-6-one], the IC50 in the assay with DU4475 was 6.72 nM; in assay [1] it was 29.9 nM; with HepG2, 22.1 nM; in the assay with RKO it was more than 10000 nM; in the assay with H929, 78.8 nM; in the assay on Colo205, 7.43 nM.

Consider `[2H]C([2H])([2H])N1c2nc(NCc3ccc(Oc4cnc(C(F)(F)F)nc4C)nc3)nc3c2N(CCC3)C(=O)[C@@H]1CO` [Compound 4, (S)-5-(Hydroxymethyl)-4-(methyl-d3)-2-(((6-((4-methyl-2-(trifluoromethyl)pyrimidin-5-yl)oxy)pyridin-3-yl)methyl)amino)-4,5,9,10-tetrahydro-6H,8H-pyrido[3,2,1-de]pteridin-6-one], for which the IC50 in the assay on DU4475 is 25.8 nM; in assay [1], 66.3 nM; in the assay with HepG2, 89.7 nM; with RKO, more than 10000 nM; in the assay on H929 it was 278 nM; with Colo205, 42.6 nM.

In the case of `[2H]C([2H])([2H])N1c2nc(NCc3ccc(Oc4ccc(C(F)(F)F)nc4Cl)nc3)nc3c2N(CCC3)C(=O)[C@@H]1CO` [Compound 1, (S)-2-(((6-((2-chloro-6-(trifluoromethyl)pyridin-3-yl)oxy)pyridin-3-yl)methyl)amino)-5-(hydroxymethyl)-4-(methyl-d3)-4,5,9,10-tetrahydro-6H,8H-pyrido[3,2,1-de]pteridin-6-one], the IC50 in the assay with DU4475 was 3.17 nM; in assay [1], 15.5 nM; with HepG2, 1.45 nM; in the assay on RKO, more than 10000 nM; in the assay on H929, 40.3 nM; with Colo205, 7.81 nM.

In the case of `Cc1nc(C(F)(F)F)ncc1Oc1ccc(CNc2nc3c4c(n2)N(C)[C@@H]([C@H](C)O)C(=O)N4CCC3)cn1` [Compound 25], the IC50 in the assay on DU4475 is 15.9 nM; in assay [1] it was 69.4 nM; with HepG2, 68 nM; in the assay on RKO it was more than 10000 nM; in the assay with H929, 98 nM; in the assay on Colo205, 64.5 nM.

Turning to `CN1c2nc(NCc3ccc(Oc4ccc(C(F)(F)F)nc4N4CC(F)(F)C4)nc3)nc3c2N(CCC3)C(=O)[C@]1(C)CO` [Compound 21], the IC50 in the assay with DU4475 is 4.83 nM; in assay [1] it was 4.94 nM; in the assay with HepG2 it was 1.52 nM; in the assay with RKO it was more than 10000 nM; in the assay on H929, 255 nM; in the assay with Colo205, less than 0.1 nM.

Take `CNc1nc(C(F)(F)F)ccc1Oc1ccc(CNc2nc3c4c(n2)N(C)[C@@](C)(CO)C(=O)N4CCC3)cn1` [Compound 16, (S)-5-(Hydroxymethyl)-4,5-dimethyl-2-(((6-((2-(methylamino)-6-(trifluoromethyl)pyridin-3-yl)oxy)pyridin-3-yl)methyl)amino)-4,5,9,10-tetrahydro-6H,8H-pyrido[3,2,1-de]pteridin-6-one]: the IC50 with DU4475 was 1.2 nM; in assay [1], 21.5 nM; with HepG2 it was 1.13 nM; in the assay with RKO it was more than 10000 nM; in the assay on H929 it was 103 nM; in the assay with Colo205 it was less than 0.1 nM.

As for `[2H]C([2H])([2H])N1c2nc(NCc3ccc(Oc4ccc(C(F)(F)F)nc4F)nc3)nc3c2N(CCC3)C(=O)[C@@H]1CO` [Compound 27], the IC50 was 24.6 nM in the assay with DU4475; 30.6 nM in assay [1]; 38.3 nM in the assay on HepG2; more than 10000 nM with RKO; 90.2 nM in the assay on H929; 22.8 nM in the assay on Colo205.

(Values after patent US20250163062A1, “WNT PATHWAY INHIBITOR COMPOUNDS” (ADLAI NORTYE BIOPHARMA CO., LTD., priority 2022, published 2025).)
